Test results from patent US6759051B2, “Cosmetic or dermatological composition comprising at least one alkynyl carbamate and at least one polyol” (L'Oreal, priority 1998, dated 2004).

Test system: Pityrosporum ovale from the Institut Pasteur, reference CIP 1363.82
Experiment: Antifungal activity by the MIC (Minimum Inhibitory Concentration) method
Format: cell-based
Details: each compound at the concentration MIC/2; Sabouraud+Tween 40+glyceryl monooleate agar medium, 48 hours at 30° C
Procedure: The activity of the combination of compound (A) and compound (B) was determined by a conventional method known as the MIC (Minimum Inhibitory Concentration), the MIC corresponding to the concentration at which a given […] inhibits the growth of a given strain under defined conditions.
In this instance, strains of Pityrosporum ovale from the Institut Pasteur, reference CIP 1363.82, were used.
An inoculum of a fresh culture, of 1 to 10×10^7 cells/ml, is introduced into a Sabouraud+Tween 40 at 10 g/l+glyceryl monooleate at 2.5 g/l agar medium, in the presence or absence of the compound or of the combination of the compounds to be studied, and incubated for 48 hours at 30° C.

Row | SMILES | growth of the microorganism
1 | CCCCNC(=O)OCC#CI [Compound A, 3-iodo-2-propynyl butyl carbamate] | identical to that of the control medium
2 | CCCCC(CC)COCC(O)CO (centres unmarked) [Compound B, 3-(2-ethylhexyloxy)-1,2-propanediol] | identical to that of the control medium
